From US11919905B2, “Substituted benzo[f]imidazo[1,2-a][1,4]diazepines as anesthetics” (HANGZHOU ADAMERCK PHARMLABS INC., priority 2017, dated 2024)

Tests used:
Type in all cases: in vivo
ICR mice [1] = experiment: Disappearance of righting reflex in mice induced by drugs (single i.v. bolus); details: 100 mg/kg single bolus via tail vein, male ICR mice
Protocol: After ICR mice (male, 18-25 g) were fast injected with the same dose (100 mg/kg) of the test drug in a single bolus via the tail vein, the incubation period and the duration of disappearance of the righting reflex in mice were recorded. Wherein, the incubation period refers to the time from the start of administration to the disappearance of the animal's righting reflex, and the duration refers to the time from the disappearance of the righting reflex to the recovery.

ICR mice [2] = experiment: Effective dose and lethal dose of intravenous administration in mice
Protocol: ICR mice (males, 18-25 g) were randomly grouped and were fast given a single bolus of different doses of test drug via the tail vein, and the lowest dose causing the righting reflex to disappear (effective dose) and the dose causing animal death (lethal dose) were recorded, and the treatment windows (lethal dose/effective dose) were calculated.

mice [3] = experiment: Multiple (9 times) i.v. administrations: duration of disappearance of righting reflex in mice
Protocol: Animals in each group were given the corresponding drug solution multiple times by the tail vein injection (i.v.) in accordance with the corresponding group, 0.1 ml per mouse each time, for 9 times of consecutive injections (the administration group mice were injected when the righting reflex was recovered). The durations of each disappearance of righting reflex were recorded, and the data was expressed as an average.

mice [4] = experiment: Single i.v. administration: autonomous activity of mice
Protocol: Animals in each group were tested for their autonomous activities, each mouse for 10 minutes. After that, the animals in each group were given a single corresponding drug solution by the tail vein injection (i.v.) according to the corresponding group, 0.1 ml per 10 g body weight, and the autonomous activity of the mice was measured immediately after the administration, and the recording time was 50 min. Data were expressed as mean±standard deviation. Wherein, the dosage of propofol was 20 mg/kg.

mice [5] = experiment: Multiple (10 times) i.v. administrations: autonomous activity of mice
Protocol: Animals in each group were given the corresponding drug solution multiple times by the tail vein injection (i.v.) in accordance with the corresponding group, 0.1 ml per mouse each time, for ten times of consecutive injections (the administration group mice were injected when the righting reflex was recovered). Then the autonomous activity of mice was measured immediately and the recording time was 50 minutes. Data were expressed as mean±standard deviation.

[6] = single bolus via tail vein, male ICR mice
[7] = 50 mg/kg i.v., administration 1
[8] = 50 mg/kg i.v., administration 2
[9] = 50 mg/kg i.v., administration 3
[10] = 50 mg/kg i.v., administration 4
[11] = 50 mg/kg i.v., administration 5
[12] = 50 mg/kg i.v., administration 6
[13] = 50 mg/kg i.v., administration 7
[14] = 50 mg/kg i.v., administration 8
[15] = 50 mg/kg i.v., administration 9
[16] = 75 mg/kg i.v., administration 1
[17] = 75 mg/kg i.v., administration 2
[18] = 75 mg/kg i.v., administration 3
[19] = 75 mg/kg i.v., administration 4
[20] = 75 mg/kg i.v., administration 5
[21] = 75 mg/kg i.v., administration 6
[22] = 75 mg/kg i.v., administration 7
[23] = 75 mg/kg i.v., administration 8
[24] = 75 mg/kg i.v., administration 9
[25] = 100 mg/kg i.v., administration 1
[26] = 100 mg/kg i.v., administration 2
[27] = 100 mg/kg i.v., administration 3
[28] = 100 mg/kg i.v., administration 4
[29] = 100 mg/kg i.v., administration 5
[30] = 100 mg/kg i.v., administration 6
[31] = 100 mg/kg i.v., administration 7
[32] = 100 mg/kg i.v., administration 8
[33] = 100 mg/kg i.v., administration 9

## COC(=O)CC[C@@H]1N=C(c2ccccn2)c2cc(F)c(C)cc2-n2c(C)cnc21.Cc1ccc(S(=O)(=O)O)cc1 [Compound 1-2]
ICR mice [1]
  Duration (time from disappearance of righting reflex to recovery): 6.02 min
  Incubation period (time from start of administration to disappearance of righting reflex): 0.52 min
ICR mice [2]; Mus musculus, iv, single bolus via tail vein, male ICR mice, read-out: Effective dose (lowest dose causing the righting reflex to disappear)
  minimal effective dose: 40 mg/kg
ICR mice [2]; mice, i.v.
  effective dose reduced, compared to remimazolam (p-toluenesulfonate): 33.3%
  lethal dose increased, compared to remimazolam (p-toluenesulfonate): 64%
  treatment window increased, compared to remimazolam (p-toluenesulfonate): 2.5 times
ICR mice [2]; [6]
  Lethal dose (dose causing animal death): 360 mg/kg
  Treatment window (lethal dose/effective dose): 9
Mice [3]; [7]
  Percentage of extension of righting reflex disappearance: 100%
  righting reflex disappearance time: 2.5 min
Mice [3]; [8]
  Percentage of extension of righting reflex disappearance: 179%
  righting reflex disappearance time: 4.4 min
Mice [3]; [9]
  Percentage of extension of righting reflex disappearance: 192%
  righting reflex disappearance time: 4.8 min
Mice [3]; [10]
  Percentage of extension of righting reflex disappearance: 227%
  righting reflex disappearance time: 5.6 min
Mice [3]; [11]
  Percentage of extension of righting reflex disappearance: 237%
  righting reflex disappearance time: 5.9 min
Mice [3]; [12]
  Percentage of extension of righting reflex disappearance: 208%
  righting reflex disappearance time: 5.2 min
Mice [3]; [13]
  Percentage of extension of righting reflex disappearance: 268%
  righting reflex disappearance time: 6.6 min
Mice [3]; [14]
  Percentage of extension of righting reflex disappearance: 260%
  righting reflex disappearance time: 6.5 min
Mice [3]; [15]
  Percentage of extension of righting reflex disappearance: 268%
  righting reflex disappearance time: 6.6 min
Mice [3]; 75 mg/kg dose group, after 6-7 administrations, vs propofol 20 mg/kg
  disappearance time of righting reflex as share of that of the propofol group: 65-70%
Mice [3]; [16]
  Percentage of extension of righting reflex disappearance: 100%
  righting reflex disappearance time: 5.3 min
Mice [3]; [17]
  Percentage of extension of righting reflex disappearance: 128%
  righting reflex disappearance time: 6.7 min
Mice [3]; [18]
  Percentage of extension of righting reflex disappearance: 159%
  righting reflex disappearance time: 8.4 min
Mice [3]; [19]
  Percentage of extension of righting reflex disappearance: 173%
  righting reflex disappearance time: 9.1 min
Mice [3]; [20]
  Percentage of extension of righting reflex disappearance: 194%
  righting reflex disappearance time: 10.2 min
Mice [3]; [21]
  Percentage of extension of righting reflex disappearance: 219%
  righting reflex disappearance time: 11.5 min
Mice [3]; [22]
  Percentage of extension of righting reflex disappearance: 231%
  righting reflex disappearance time: 12.1 min
Mice [3]; [23]
  Percentage of extension of righting reflex disappearance: 211%
  righting reflex disappearance time: 11.1 min
Mice [3]; [24]
  Percentage of extension of righting reflex disappearance: 211%
  righting reflex disappearance time: 11.1 min
Mice [3]; [25]
  Percentage of extension of righting reflex disappearance: 100%
  righting reflex disappearance time: 8.9 min
Mice [3]; [26]
  Percentage of extension of righting reflex disappearance: 121%
  righting reflex disappearance time: 10.8 min
Mice [3]; [27]
  Percentage of extension of righting reflex disappearance: 154%
  righting reflex disappearance time: 13.8 min
Mice [3]; [28]
  Percentage of extension of righting reflex disappearance: 177%
  righting reflex disappearance time: 15.8 min
Mice [3]; [29]
  Percentage of extension of righting reflex disappearance: 181%
  righting reflex disappearance time: 16.2 min
Mice [3]; [30]
  Percentage of extension of righting reflex disappearance: 240%
  righting reflex disappearance time: 21.5 min
Mice [3]; [31]
  Percentage of extension of righting reflex disappearance: 234%
  righting reflex disappearance time: 20.9 min
Mice [3]; [32]
  Percentage of extension of righting reflex disappearance: 238%
  righting reflex disappearance time: 21.2 min
Mice [3]; [33]
  Percentage of extension of righting reflex disappearance: 236%
  righting reflex disappearance time: 21.1 min
Mice [3]; each dose group vs propofol group
  accumulation effect (prolonged rate of righting reflex disappearance time after multiple administrations): lower than that of propofol
Mice [3]; i.v., 50-100 mg/kg
  dose dependence of duration of righting reflex disappearance: dose-dependent
Mice [3]; repeated i.v. administration, each dose group
  number of consecutive administrations after which duration of righting reflex disappearance reached steady state: 5-6
Mice [4]; single i.v. 50 mg/kg (low-dose group)
  time after administration until autonomous activity returned to normal level: 15 min
Mice [4]; single i.v. 50 mg/kg-100 mg/kg, within 10 minutes of injection
  total distance of autonomous activity compared with blank group: significantly lower than that of the blank group
Mice [4]; single i.v. 75 mg/kg (medium-dose group)
  time after administration until autonomous activity returned to normal level: 35 min
Mice [4]; single i.v. 100 mg/kg (high-dose group), 50 min test period
  autonomous activity compared with blank group: consistently lower than that of the blank group during the test period
Mice [5]; 10 consecutive i.v. injections, 50 mg/kg
  time after administration until autonomous activity returned to normal levels: 15 to 20 min
Mice [5]; 10 consecutive i.v. injections, 100 mg/kg, test period 50 minutes
  return of autonomous activity to normal levels: did not return to normal levels during the test period
Mice [5]; multiple i.v. administrations, vs propofol
  recovery of the number of autonomous activities and the rest time after multiple administrations: better than that of propofol
